These results are taken from patent publication US8063060B2, “R(−)-11-hydroxyaporphine derivatives and uses thereof” (The McLean Hospital Corporation, priority 2004, dated 2011).

For orientation: melting point means the temperature of the solid-liquid transition.

Structures can show the parent of a compound that is named as a salt. Where two headings read alike, the source gives them in different places.

The conditions of data set [1]: following a single dose; cited from earlier work.
Data set [2] relates to adult male Sprague-Dawley rats. The experiment in a line: Stimulation of motor activity (photobeam activity monitoring), in vivo potency and oral bioavailability. As to conditions: for Induced motor activation, Response (total of electronically monitored locomotor responses, scored over time): relative to 4 μmol/kg i.p. R(−)-apomorphine = 1. Further details: species or system rat. Here is the method:
In vivo potency and oral bioavailability of the aporphine derivatives were determined by measuring stimulation of motor activity in adult male Sprague-Dawley rats using a photobeam activity monitoring system (San Diego Instruments; San Diego, Calif.). See Zhang et al., Neuropsychopharmacology 25:624 (2001). The number of animal subjects in each experimental group ranged from 4 to 8. Oral delivery of test agents was achieved using a permanently surgically pre-implanted polyethylene gastric tube to avoid stress associated with conventional oral intubation. For this surgery, rates were anesthetized with 60 mg/kg sodium pentobarbital intraperitoneally. PE50 tubing was inserted and sutured to the stomach, and led subcutaneously to a point of access on the back of the neck, where it was sutured in place. Animals were allowed two weeks to recover prior to behavior testing.

The target of the next data set is T1, human D3 receptor (Homo sapiens, UniProt P35462).
T1 construct: expressed in transfected cells
Description: Affinity at human D3 receptor in transfected cell membranes, tritium-labeled 7-OH-DPAT. Type of data set: binding. The protocol:
(§1) Affinity data were obtained in cells transfected with human D1, D2, or D3 receptor cDNA. Cells were grown and harvested using standard procedures.

The target in the next data set is T2, dopamine D1 receptor (Rattus norvegicus, UniProt P18901).
T2 construct: membrane preparations from dopamine-rich corpus striatum (caudatoputamen) tissue from rat forebrain; from tissue; host or cells: corpus striatum (caudatoputamen) of adult male Sprague-Dawley rats
Description: Radioligand competition assay, D1 receptor, rat corpus striatum membranes, [3H]SCH-23390. Type of data set: binding. Here is the method:
(§2) Affinity of N-alkyl R(−)-11-hydroxyaporphines (14, 4, 5, 15, 23, 24) and their esters (17-19) for the dopamine D1 and D2 receptors was determined by radioligand competition assays, using membrane preparations from dopamine-rich corpus striatum (caudatoputamen) tissue from rat forebrain. Adult male Sprague-Dawley rats were sacrificed by decapitation following carbon dioxide narcosis. Brains were quickly removed and dissected on ice. Tissue was homogenized in 50 mM Tris-HCl buffer (pH 7.4) containing 150 mM NaCl, washed twice and resuspended in the same buffer. For the D1 dopamine receptor assay, homogenate was incubated with 0.3 nM [^3H]SCH-23390 (Perkin Elmer; Boston, Mass.) for 30 minutes at 30° C. Non-specific binding was defined with 10 μM cis-flupenthixol. See Faedda et al., Biochem. Pharmacol. 38:473 (1989). For the D2 receptor assay, homogenate was incubated with […] [^3H]nemonapride (Perkin Elmer, Boston, Mass.) for 90 minutes at 30° C. Nonspecific binding was defined with 10 μM haloperidol. See Baldessarini et al., Mol. Pharmacol. 42:856 (1992). Experiments were carried out in triplicate.
On the technique in general: Loss of bound radioactivity is the signal in a displacement assay; it reports binding, not function.

A further data set addresses dopamine D2 receptor (Rattus norvegicus, UniProt P61169). Description: Radioligand competition assay, D2 receptor, rat corpus striatum membranes, [3H]nemonapride. It counts as binding. The protocol: as §2
In the next data set the target is T3, human D1 receptor (Homo sapiens, UniProt P21728).
T3 construct: expressed in transfected cells
Description: Affinity at human D1 receptor in transfected cell membranes, tritium-labeled SCH-23390. Type of data set: binding. The protocol: as §1

For a further data set, the target named is T4, human D2 receptor (Homo sapiens, UniProt P14416).
T4 construct: expressed in transfected cells
The experiment in a line: Affinity at human D2 receptor in transfected cell membranes, tritium-labeled nemonapride. Type of data set: binding. The protocol: as §1

Setting [3] is: transfected cell membranes, read-out: Affinity at human receptors, D3.
Setting [4] is: rat striatal membranes, 0.3 nM [3H]SCH-23390, 30 minutes at 30° C, read-out: Affinity at rat dopamine receptors, D1.
Setting [5] is: rat striatal membranes, [3H]nemonapride, 90 minutes at 30° C, read-out: Affinity at rat dopamine receptors, D2.
[6] abbreviates: transfected cell membranes, read-out: Affinity at human receptors, D2.
[7] abbreviates: transfected cell membranes, read-out: Affinity at human receptors, D1.

T3 sequence (P21728 whole entry): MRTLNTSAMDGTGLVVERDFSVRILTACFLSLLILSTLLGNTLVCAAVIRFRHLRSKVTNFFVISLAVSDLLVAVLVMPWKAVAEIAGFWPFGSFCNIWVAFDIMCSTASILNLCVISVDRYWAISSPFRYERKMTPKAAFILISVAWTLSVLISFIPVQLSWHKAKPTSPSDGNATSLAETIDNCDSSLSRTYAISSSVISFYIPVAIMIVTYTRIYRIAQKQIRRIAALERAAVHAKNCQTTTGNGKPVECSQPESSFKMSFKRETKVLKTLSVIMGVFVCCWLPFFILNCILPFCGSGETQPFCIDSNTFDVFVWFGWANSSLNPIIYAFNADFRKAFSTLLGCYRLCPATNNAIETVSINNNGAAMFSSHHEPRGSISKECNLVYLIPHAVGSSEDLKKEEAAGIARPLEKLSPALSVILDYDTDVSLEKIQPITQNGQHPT
T2 sequence (P18901 whole entry): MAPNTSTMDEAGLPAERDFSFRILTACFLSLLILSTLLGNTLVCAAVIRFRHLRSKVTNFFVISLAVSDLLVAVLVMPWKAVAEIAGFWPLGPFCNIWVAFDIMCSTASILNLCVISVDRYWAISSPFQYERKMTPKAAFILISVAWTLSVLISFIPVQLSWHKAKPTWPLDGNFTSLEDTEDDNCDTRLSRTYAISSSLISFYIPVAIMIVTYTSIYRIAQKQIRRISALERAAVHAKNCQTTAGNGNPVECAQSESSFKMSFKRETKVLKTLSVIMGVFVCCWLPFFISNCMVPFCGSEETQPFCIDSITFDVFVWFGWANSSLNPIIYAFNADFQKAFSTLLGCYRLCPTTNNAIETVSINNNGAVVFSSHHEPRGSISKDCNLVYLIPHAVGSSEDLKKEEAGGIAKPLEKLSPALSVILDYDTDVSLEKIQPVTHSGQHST
Sequence of dopamine D2 receptor (P61169 1-415 isoform P61169-2): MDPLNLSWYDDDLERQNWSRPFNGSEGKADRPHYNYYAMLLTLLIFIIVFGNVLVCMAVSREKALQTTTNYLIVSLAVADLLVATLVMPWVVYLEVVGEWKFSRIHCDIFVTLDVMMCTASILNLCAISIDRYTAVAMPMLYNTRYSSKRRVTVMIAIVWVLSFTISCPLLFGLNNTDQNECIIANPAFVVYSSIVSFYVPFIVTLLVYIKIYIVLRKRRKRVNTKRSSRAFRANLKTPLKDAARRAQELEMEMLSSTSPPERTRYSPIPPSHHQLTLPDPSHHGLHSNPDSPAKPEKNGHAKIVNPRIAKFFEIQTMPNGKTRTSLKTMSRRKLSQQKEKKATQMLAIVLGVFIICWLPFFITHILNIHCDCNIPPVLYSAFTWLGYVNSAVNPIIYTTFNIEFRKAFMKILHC
T4 sequence (P14416 whole entry): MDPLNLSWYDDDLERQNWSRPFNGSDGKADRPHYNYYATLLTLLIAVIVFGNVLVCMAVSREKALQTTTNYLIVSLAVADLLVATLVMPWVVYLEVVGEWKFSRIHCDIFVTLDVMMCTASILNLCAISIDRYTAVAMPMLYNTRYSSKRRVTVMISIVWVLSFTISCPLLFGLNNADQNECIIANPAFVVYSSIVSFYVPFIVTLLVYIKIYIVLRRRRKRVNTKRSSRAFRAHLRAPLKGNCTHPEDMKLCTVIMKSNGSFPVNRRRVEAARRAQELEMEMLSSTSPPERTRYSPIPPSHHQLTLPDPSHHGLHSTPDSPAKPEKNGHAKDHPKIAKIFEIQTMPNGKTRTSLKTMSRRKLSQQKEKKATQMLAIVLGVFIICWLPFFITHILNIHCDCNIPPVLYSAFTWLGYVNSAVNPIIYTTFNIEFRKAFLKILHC
T1 sequence (P35462 whole entry): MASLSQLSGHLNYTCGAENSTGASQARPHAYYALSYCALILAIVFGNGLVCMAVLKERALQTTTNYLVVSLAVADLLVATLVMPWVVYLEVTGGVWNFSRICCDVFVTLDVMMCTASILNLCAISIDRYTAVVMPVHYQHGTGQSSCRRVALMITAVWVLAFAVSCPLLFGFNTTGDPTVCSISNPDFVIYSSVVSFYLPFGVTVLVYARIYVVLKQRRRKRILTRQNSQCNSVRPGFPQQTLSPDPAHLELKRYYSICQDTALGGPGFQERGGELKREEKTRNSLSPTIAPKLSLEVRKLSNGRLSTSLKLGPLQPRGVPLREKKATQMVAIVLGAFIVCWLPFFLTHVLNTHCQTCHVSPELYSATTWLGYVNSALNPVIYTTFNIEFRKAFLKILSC

Compound `C=CCN1CCc2cccc3c2[C@H]1Cc1cccc(O)c1-3` (as salt: hydrochloride) [Compound 5, R(−)-N-allyl-11-hydroxynoraporphine] returned a melting point of 186 to 190 °C.
Same read-out and setting: as for `CCN1CCc2cccc3c2[C@H]1Cc1cccc(O)c1-3` (as salt: hydrochloride) [Compound 14, R(−)—N-ethyl-11-hydroxynoraporphine], the figure is 250 °C.
Turning to `CN1CCc2cccc3c2[C@H]1Cc1ccc(O)c(O)c1-3` [Compound 1, R(−)-apomorphine], in data set [1], the “effects last for” value was 40 to 60 min and the onset of action was 5 to 15 min.
`CCCN1CCc2cccc3c2[C@H]1Cc1ccc(O)c(O)c1-3` [Compound 2, R(−)-N-propylnorapomorphine, reference compound]: the “Induced motor activation, Response (total of electronically monitored locomotor responses, scored over time)” value stood at 0 in data set [2] (4 μmol/kg, gastric); 12 in data set [2] (4 μmol/kg, peritoneal); 68 in data set [2] (20 μmol/kg, gastric). Besides, the “Induced motor activation, Duration” value is 8 h in data set [2] (4 μmol/kg, peritoneal) and 14 h in data set [2] (20 μmol/kg, gastric). Also, on human D3 receptor (setting [3]), the Ki turned out to be 0.51 ± 0.07 nM.
On to `CN1CCc2cccc3c2[C@H]1Cc1cccc(O)c1-3` [Compound 3, R(−)-11-OH-aporphine, reference compound], for which the Ki on dopamine D1 receptor (setting [4]) was 26.5 ± 1.03 nM; at dopamine D2 receptor (setting [5]), 108 ± 10.8 nM.
`CCCN1CCc2cccc3c2[C@H]1Cc1cccc(O)c1-3` [Compound 4, R(−)—N-propyl-11-hydroxynoraporphine]: the “Induced motor activation, Response (total of electronically monitored locomotor responses, scored over time)” value amounted to 0 in data set [2] (4 μmol/kg, gastric); 24 in data set [2] (4 μmol/kg, peritoneal); 76 in data set [2] (20 μmol/kg, gastric). Also, the “Induced motor activation, Duration” value in data set [2] (4 μmol/kg, peritoneal) was 8 h; in data set [2] (20 μmol/kg, gastric), 18 h. Moreover, the Ki stood at 4.89 ± 1.06 nM at human D3 receptor and 1280 ± 209 nM at human D1 receptor.
Turning to `C=CCN1CCc2cccc3c2[C@H]1Cc1cccc(O)c1-3` [Compound 5, R(−)-N-allyl-11-hydroxynoraporphine], the Ki was 113 ± 17 nM at human D2 receptor, 397 ± 51 nM at dopamine D1 receptor, 944 ± 149 nM at human D1 receptor and 41.1 ± 11 nM at dopamine D2 receptor.
Regarding `CCN1CCc2cccc3c2[C@H]1Cc1cccc(O)c1-3` [Compound 14, R(−)—N-ethyl-11-hydroxynoraporphine], the Ki on human D2 receptor (setting [6]) worked out at 283 ± 53 nM; on dopamine D1 receptor (setting [4]) it was 177 ± 13 nM; at human D3 receptor, 36.7 ± 4 nM; on human D1 receptor (setting [7]) it was 362 ± 38 nM; on dopamine D2 receptor, 88 ± 15.5 nM. In addition, the “Induced motor activation, Response (total of electronically monitored locomotor responses, scored over time)” value in data set [2] (4 μmol/kg, gastric) is 0; in data set [2] (4 μmol/kg, peritoneal) it was 12; in data set [2] (20 μmol/kg, gastric) it was 0. The “Induced motor activation, Duration” value in data set [2] (4 μmol/kg, peritoneal) is 4 h.
For `Oc1cccc2c1-c1cccc3c1[C@@H](C2)N(CC1CC1)CC3` [Compound 15, R(−)-N-cyclopropylmethyl-11-hydroxynoraporphine], the Ki was found to be 436 ± 39 nM on human D2 receptor (setting [6]), 272 ± 18 nM on dopamine D1 receptor (setting [4]), 30.1 ± 3.5 nM at human D3 receptor and 96.3 ± 15.8 nM on dopamine D2 receptor.
Turning to `CC/C=C\C/C=C\C/C=C\C/C=C\C/C=C\C/C=C\CCC(=O)Oc1cccc2c1-c1cccc3c1[C@@H](C2)N(CCC)CC3` [Compound 17, R(−)-11-O-docosahexaenoyl-N-propyl-noraporphine], the “Induced motor activation, Response (total of electronically monitored locomotor responses, scored over time)” value in data set [2] (4 μmol/kg, cutaneous) came to 0; in data set [2] (4 μmol/kg, gastric), 0; in data set [2] (20 μmol/kg, cutaneous), 5; in data set [2] (20 μmol/kg, gastric) it was 75. Moreover, the “Induced motor activation, Duration” value in data set [2] (20 μmol/kg, cutaneous) turned out to be 6 h; in data set [2] (20 μmol/kg, gastric), 12 h.
In the case of `CCCCC(=O)Oc1cccc2c1-c1cccc3c1[C@@H](C2)N(CCC)CC3` [Compound 18, R(−)-11-O-valeryl-N-propyl-noraporphine], the “Induced motor activation, Response (total of electronically monitored locomotor responses, scored over time)” value was determined as 0 in data set [2] (4 μmol/kg, gastric); 53 in data set [2] (4 μmol/kg, peritoneal); 99 in data set [2] (20 μmol/kg, gastric). In addition, the “Induced motor activation, Duration” value in data set [2] (4 μmol/kg, peritoneal) was found to be 12 h; in data set [2] (20 μmol/kg, gastric) it was 14 h. Further, the Ki at dopamine D2 receptor (read-out: Affinity at rat dopamine receptors, D2) turned out to be 340 ± 65 nM.
Regarding `CCCN1CCc2cccc3c2[C@H]1Cc1cccc(OC(C)=O)c1-3` [Compound 19, R(−)-11-O-acetyl-N-propyl-noraporphine], the “Induced motor activation, Response (total of electronically monitored locomotor responses, scored over time)” value was determined as 0 in data set [2] (4 μmol/kg, gastric); 12 in data set [2] (4 μmol/kg, peritoneal); 168 in data set [2] (20 μmol/kg, gastric). Further, the “Induced motor activation, Duration” value came out at 8 h in data set [2] (4 μmol/kg, peritoneal) and 16 h in data set [2] (20 μmol/kg, gastric). For the same compound, the Ki at dopamine D2 receptor (setting [5]) stood at 72.3 ± 6.8 nM.
As to `CCCN1CCc2cc(F)cc3c2[C@H]1Cc1ccc(O)c(O)c1-3` [Compound 22, R(−)-2-fluoro-N-n-propylnorapomorphine, reference compound], the Ki worked out at 46 ± 2.6 nM on human D2 receptor (setting [6]); 618 ± 133 nM at dopamine D1 receptor (setting [4]); 2.49 ± 0.18 nM at human D3 receptor (setting [3]); 414 ± 30 nM on human D1 receptor (setting [7]); 17.2 ± 1.2 nM on dopamine D2 receptor (setting [5]).
In the case of `CCCN1CCc2cc(F)cc3c2[C@H]1Cc1cccc(O)c1-3` [Compound 23, R(−)-2-fluoro-N-propyl-11-hydroxynoraporphine], the values for the Ki on dopamine D1 receptor and on dopamine D2 receptor (setting [5]) were 12.6 ± 0.6 nM and 203 ± 37 nM, respectively.
For `CN1CCc2cc(O)cc3c2[C@H]1Cc1cccc(O)c1-3` [Compound 24, R(−)-2,11-dihydroxyaporphine], the Ki on dopamine D1 receptor (setting [4]) turned out to be 122 ± 8 nM; at dopamine D2 receptor, 86 ± 14.2 nM.
